According to patent US8735415B2, “Acid addition salts of (3,5-Bis trifluoromethyl)-N-[4-methyl-3-(4-pyridin-3yl-pyrimidin-2ylamino)-phenyl]-benzamide” (Natco Pharma Limited, priority 2004, dated 2014):
≈ marks a conversion by molar mass, not a printed value.

Tests used:
[1] = Stability under high humidity conditions (water content by Karl-Fischer method); type: physicochemical; conditions: for Final moisture content - After 48 hours at 25° C. at humidity of 60%: humidity 60%; for Final moisture content - After 48 hours at 25° C. at humidity of 60% / Final moisture content - After 48 hours at 40° C. at humidity of 75% / Initial moisture content (%): Karl-Fischer; for Final moisture content - After 48 hours at 40° C. at humidity of 75%: humidity 75%; for Initial moisture content (%): before storage; for Hygroscopicity (conclusion in words): conclusion from Table 1
[2] = Solubility by the shake flask method; conditions: for Solubility (mg/ml): Medium: Water
Method: General conditions: Room temperature (25° C.), stirring speed: 200 RPM, Analytical method: UV

Mice = assay: Maximum tolerated dose (MTD) for 14 days; type: in vivo; conditions: for MTD (mg/kg, po): Mice, 14 days
Source text: Maximum Tolerated Dose—Non-Toxic Nature

[3] = Flow properties, angle of repose; type: physicochemical
[4] = system: K562 cell line, chronic myelogenous leukemia (CML); assay: Activity in cell culture, K562 cell proliferation; type: cell-based; conditions: for IC50: K562, 0.312×10^5 cells/ml, 72 Hrs, 10 μM to 0.156 μM; for Potency in inhibiting cell proliferation compared with Imatinib: K562
[5] = system: T315I cell line, chronic myelogenous leukemia (CML) mutant; assay: Activity in cell culture, T315I cell proliferation; type: cell-based; conditions: for IC50: 0.625×10^5 cells/ml, 10 μM to 0.156 μM
[6] = Bioavailability study in mice; type: in vivo
[7] = 0.1N HCl, 25 °C, simulated gastric fluid, thermodynamic from solid

| SMILES | Final moisture content - After 48 hours at 25° C. at humidity of 60% [1] [%] | Final moisture content - After 48 hours at 40° C. at humidity of 75% [1] [%] | Initial moisture content (%) [1] [%] | Hygroscopicity (conclusion in words) [1] | Solubility (mg/ml) ([2]; 25° C., 200 RPM, UV) | MTD (mg/kg, po) (Mice) | Angle of Repose (degrees °) [3] [degrees °] | Potency in inhibiting cell proliferation compared with Imatinib [4] | Potency in inhibiting cell proliferation compared with Imatinib [5] | solubility [2, 7] [µg/mL] | other results |
| --- | --- | --- | --- | --- | --- | --- | --- | --- | --- | --- | --- |
| Cc1ccc(NC(=O)c2cc(C(F)(F)F)cc(C(F)(F)F)c2)cc1Nc1nccc(-c2cccnc2)n1.Cl [(3,5-Bis trifluoromethyl)-N-[4-methyl-3-(4-pyridin-3-yl-pyrimidin-2-ylamino)-phenyl]-benzamide hydrochloride] | 0.7 | 0.7 | 0.6 | non-hygroscopic | Almost no |  |  |  |  |  | solubility ([2]; Medium: 0.1N HCl, 25° C., 200 RPM, UV): 13.4 µg/mL |
| CS(=O)(=O)O.Cc1ccc(NC(=O)c2cc(C(F)(F)F)cc(C(F)(F)F)c2)cc1Nc1nccc(-c2cccnc2)n1 [(3,5-Bis trifluoromethyl)-N-[4-methyl-3-(4-pyridin-3-yl-pyrimidin-2-ylamino)-phenyl]-benzamide methane sulfonate] | 0.7 | 0.7 | 0.6 | non-hygroscopic |  |  |  |  |  |  |  |
| Cc1ccc(NC(=O)c2cc(C(F)(F)F)cc(C(F)(F)F)c2)cc1Nc1nccc(-c2cccnc2)n1 [AN-019, (3,5-Bistrifluoromethyl)-N-[4-methyl-3-(4-pyridin-3-yl-pyrimidin-2-ylamino)-phenyl]-benzamide] |  |  |  |  | Almost no | 500.0 mg/kg, po | 41.57 | more potent than Imatinib | more potent than Imatinib | 1.3 (≈ 2.51 µM) | IC50 ([4]; Homo sapiens, K562, 72 h): 206 nM; IC50 ([5]; 72 h): 99.3 nM; AUC [6]: 611.46 ng·h/mL; Cmax ([6]; mouse, in vivo): 93.7 ng/mL; Tmax ([6]; mouse, in vivo): 6 h |
| Cc1ccc(NC(=O)c2cc(C(F)(F)F)cc(C(F)(F)F)c2)cc1Nc1nccc(-c2cccnc2)n1.Cc1ccc(S(=O)(=O)O)cc1 [AN-019T, (3,5-Bis trifluoromethyl)-N-[4-methyl-3-(4-pyridin-3-yl-pyrimidin-2-ylamino)-phenyl]-benzamide 4-toluene sulfonate monohydrate] | 2.7 | 2.8 | 2.7 | non-hygroscopic |  | 1000.0 mg/kg, po | 30.74 | more potent than Imatinib | more potent than Imatinib | 40.2 | Toxicity compared with the base (Mice; conclusion from Table 3, mice): substantially less toxic than the corresponding base; Flow properties compared with the base ([3]; conclusion from Table 4): a lower angle of repose and better flow properties when compared with corresponding base; IC50 ([4]; monohydrate): 265 nM; IC50 ([5]; 72 Hrs, monohydrate): 109 nM; Solubility compared with the other salts ([2]; conclusion from Table 2): improved solubility properties among other salts investigated; solubility ([2]; water, 25 °C, thermodynamic from solid): 7.8 µg/mL |
